Assays:
Type in all cases: cell-based, human
[1] = system: IFN-γ in PBMC culture from serum IgE+ allergic asthmatics; test: IFN-γ release by PBMC cultures infected with C. pneumoniae MOI 0.1 (Example 3); conditions: for IFN-γ level, mean % change: p=NS
Protocol: (§1) Peripheral blood (15 mL total) was obtained from patients and controls in ethylenediaminotetraacetic (EDTA) tubes. PBMC were isolated from whole blood on Ficoll-Paque (GE Healthcare, Sweden) and then washed in RPMI 1640 with 10% fetal bovine serum (FBS), and resuspended in complete RPMI 1640 (c-RPMI). C-RPMI contained RPMI-1640 Medium HEPES Modification supplemented by L-glutamine 5 mM and 10% FBS. Cells were counted and cell viability evaluated with trypan blue dye using a hemocytometer. PBMC (1.5×10^6/mL) were cultured in duplicate in 24 flat bottom well plates (1 ml/well) for up to 12 days in absolute humidification and 5% CO2. Cell viability at 0, 48 and 240 hours was >95%. Following a 2 h incubation to allow adherance PBMC cultures were infected or stimulated in the presence or absence of doxycycline. Doxycycline was reconstituted in a 1× sterile Dulbecco's Phosphate Buffered Saline (PBS).
(§2) PBMC were infected by adding purified EB at a multiplicity of infection (MOI) of 0.01-5 for 1 hour, followed by further incubation in the presence or absence of doxycycline, at 0.01, 0.1, 1.0 μg/mL, for 2 and 10 days p.i. at 37.0° C. in complete medium in a humidified 5% CO2 atmosphere. The time points 2 d (for cytokines) and 10 d p.i. […] Adherent cells were stained with monoclonal genus specific antibodies to confirm and quantify infection with C. pneumoniae at 72 h post infection. Identical volumes of inactivated C. pneumoniae were added in some experiments. C. pneumoniae was inactivated by incubation in a 56° C. water bath for 30 minutes. […]
(§3) In order to characterize the contribution of different T lymphocyte subpopulations to in vitro IgE production, cytokine concentration in infected and uninfected PBMC cultures were analyzed and determined. […]
(§4) To determine the effect of doxycycline on cytokine release by PBMC, doxycycline (0.01-1.0 ng/ml) was added to culture following infection with C. pneumoniae (MOI=0.1). […] In FIG. 8, the data is expressed as a percent control (PBMC day 10 p.i.), 100% is the mean highest response to Cpn; *P<0.05 for doxycycline treated cultures versus no doxycycline.

[2] = system: IL-4 in PBMC culture from serum IgE+ allergic asthmatics; test: IL-4 release by PBMC cultures infected with C. pneumoniae MOI 0.1 (Example 3)
Protocol: as §1, §2, §3, §4

[3] = system: PBMC from allergic asthmatics infected with C. pneumoniae; test: In vitro IgE release by PBMC cultures infected with C. pneumoniae MOI 0.1, day 10 (Example 3)
Protocol: as §1, §2
Doxycycline at a concentration of 1 μg/ml was added to PBMC cultures after one hour incubation with C. pneumoniae MOI of 0.1. […] In FIG. 5, the data is expressed as percent control (PBMC day 10 p.i.); the mean change was 48% decrease; p=0.043. In FIG. 6, the data is expressed as mean IgE±SD (ng/ml) in cultures with the following conditions: uninfected cells (Naïve); Cpn MOI=0.1; Cpn MOI=0.1 and doxycycline […]; Cpn MOI of 1.0 and heat inactivated Cpn.

Compound: C[C@H]1c2cccc(O)c2C(=O)C2=C(O)[C@]3(O)C(=O)C(C(N)=O)=C(O)[C@@H](N(C)C)[C@@H]3[C@@H](O)[C@@H]21 [doxycycline]
- IFN-γ level, mean % decrease ([1]; doxycycline 1 ng/ml, day 2 (48 h), p=0.043): 43±27%
- IFN-γ level, mean % change ([1]; doxycycline 0.01 μg/ml): 5%±11
- IFN-γ level, mean % change ([1]; doxycycline 0.1 μg/ml): −1%±18
- IL-4 level, mean % decrease ([2]; doxycycline 1 ng/ml, day 2 (48 h), p=0.018): 30±14%
- IL-4 level, mean % change ([2]; doxycycline 0.01 μg/ml, p=0.018): −45±33%
- IL-4 level, mean % change ([2]; doxycycline 0.1 μg/ml, p<0.05): −60±13%
- mean change of IgE response, decrease (FIG. 5, percent control) ([3]; FIG. 5, individual subjects n=5, PBMC day 10 p.i., Cpn MOI=0.1, p=0.043): 48%
- suppression of IgE responses (average) ([3]; doxycycline 1 μg/ml added after 1 h incubation with C. pneumoniae MOI 0.1, day 10, p=0.043): 42%
- IgE in PBMC culture ([3]; doxycycline 1 μg/ml, C. pneumoniae MOI 0.1, day 10, versus 5.9±6.0 ng/ml without doxycycline): 3.4 ± 3.9 ng/mL
